Assays:
[1] = Phase I clinical trial: plasma pharmacokinetics; format: in vivo, human; conditions: for AUC / Cmax: oral
Protocol: (§1) Adult patients with histologically confirmed advanced solid tumors were enrolled in a 3+3 dose escalation Phase I study evaluating 3 intermittent schedules of administration for compound A: QW (once weekly), QD×3d QW (3 days on 4 days off), and QD×5d QW (5 days on 2 days off), in comparison with daily dosing (QD). Safety, maximum tolerated dose (MTD), pharmacokinetics (PK) and preliminary antitumor activity were evaluated.

[2] = Phase I clinical trial: grade 3 or greater treatment-emergent adverse events (Table 9); format: in vivo
Protocol: as §1
Pharmacodynamic (PD) endpoints were evaluated in surrogate (peripheral blood cells [PBCs], skin) and tumor tissues for the phosphorylation of TORC1-dependent markers (4EBP1/S6), and TORC2-dependent markers (AKT/PRAS40). 50 patients were treated in 3 intermittent dosing regimens; 21 in 6 cohorts ranging 7-40 mg QW, 20 in 5 cohorts ranging 6-20 mg QD×3d QW, and 9 in 3 cohorts ranging 7-13 mg QD×5d QW. […] The MTD for intermittent dosing was not reached. All adverse events (AEs) reported were reversible. The most common (≧20%, n=35) AEs considered possibly related to compound A reported in all 3 dosing regimens included nausea (51%), hyperglycemia (37%), mucosal inflammation (29%), rash (23%), asthenia (23%), vomiting (26%), and diarrhea (20%). The majority of AEs considered possibly related to compound A in any regimen were Grade 1 or 2. The only reported Grade≧3 AE (≧5%) possibly related to compound A in 3 regimens was lymphopenia (6%). Tables 4-9 show summaries of observed adverse events for various treatment regimens of the invention.

CC(C)n1nc(-c2ccc3oc(N)nc3c2)c2c(N)ncnc21 [compound A]
2 (8%): Hypokalaemia, grade 3 or greater TEAE ([2]; Total QD Dosing, N = 25) | Hyponatraemia, grade 3 or greater TEAE ([2]; Total QD Dosing, N = 25) | Lymphopenia, grade 3 or greater TEAE ([2]; Total QD Dosing, N = 25) | Pruritus, grade 3 or greater TEAE ([2]; Total QD Dosing, N = 25) | Thrombocytopenia, grade 3 or greater TEAE ([2]; Total QD Dosing, N = 25)
8 µM·h: AUC ([1]; human, plasma, 6 mg QD) | AUC ([1]; human, plasma, 16 mg Q3D)
13 µM·h: AUC ([1]; human, plasma, 13 mg Q5D)
700 nM: Cmax ([1]; human, plasma, 40 mg QW)
6%: Grade≧3 AE (≧5%) possibly related: lymphopenia ([2]; 3 regimens)
250 nM: Cmax ([1]; human, plasma, 10 mg Q5D)
480 min: half-life ([1]; human, plasma, oral doses, patients, read-out: mean elimination plasma t1/2 (converted))
1 (7%): Asthenia, grade 3 or greater TEAE ([2]; Total QDx3d QW, N = 14) | Diarrhoea, grade 3 or greater TEAE ([2]; Total QDx3d QW, N = 14) | Disease progression, grade 3 or greater TEAE ([2]; Total QDx3d QW, N = 14) | Gamma-glutamyltransferase increased, Grade 3 or greater TEAE ([2]; Total QDx3d QW, N = 14) | Gastroenteritis, Grade 3 or greater TEAE ([2]; Total QDx3d QW, N = 14) | Hyperglycaemia, grade 3 or greater TEAE ([2]; Total QDx3d QW, N = 14) | Lymphopenia, grade 3 or greater TEAE ([2]; Total QDx3d QW, N = 14) | Rash macular, Grade 3 or greater TEAE ([2]; Total QDx3d QW, N = 14) | Urinary tract infection, Grade 3 or greater TEAE ([2]; Total QDx3d QW, N = 14) | Aspartate aminotransferase increased, Grade 3 or greater TEAE ([2]; Total QW Dosing, N = 15) | Diarrhoea, grade 3 or greater TEAE ([2]; Total QW Dosing, N = 15) | Gamma-glutamyltransferase increased, Grade 3 or greater TEAE ([2]; Total QW Dosing, N = 15) | Lymphopenia, grade 3 or greater TEAE ([2]; Total QW Dosing, N = 15)
400 nM: Cmax ([1]; human, plasma, 20 mg Q3D)
1 (4%): Abdominal pain upper, Grade 3 or greater TEAE ([2]; Total QD Dosing, N = 25) | Anaemia, grade 3 or greater TEAE ([2]; Total QD Dosing, N = 25) | Catheter related infection, Grade 3 or greater TEAE ([2]; Total QD Dosing, N = 25) | Cellulitis, Grade 3 or greater TEAE ([2]; Total QD Dosing, N = 25) | Diarrhoea, grade 3 or greater TEAE ([2]; Total QD Dosing, N = 25) | Enterocutaneous fistula, Grade 3 or greater TEAE ([2]; Total QD Dosing, N = 25) | Pancreatitis acute, Grade 3 or greater TEAE ([2]; Total QD Dosing, N = 25) | Pleural effusion, Grade 3 or greater TEAE ([2]; Total QD Dosing, N = 25) | Somnolence, Grade 3 or greater TEAE ([2]; Total QD Dosing, N = 25)
6.5 µM·h: AUC ([1]; human, plasma, 40 mg QW)
0 (0%): Aspartate aminotransferase increased, Grade 3 or greater TEAE ([2]; Total QD Dosing, N = 25) | Asthenia, grade 3 or greater TEAE ([2]; Total QD Dosing, N = 25) | Disease progression, grade 3 or greater TEAE ([2]; Total QD Dosing, N = 25) | Gamma-glutamyltransferase increased, Grade 3 or greater TEAE ([2]; Total QD Dosing, N = 25) | Gastroenteritis, Grade 3 or greater TEAE ([2]; Total QD Dosing, N = 25) | Rash macular, Grade 3 or greater TEAE ([2]; Total QD Dosing, N = 25) | Urinary tract infection, Grade 3 or greater TEAE ([2]; Total QD Dosing, N = 25) | Abdominal pain upper, Grade 3 or greater TEAE ([2]; Total QDx3d QW, N = 14) | Anaemia, grade 3 or greater TEAE ([2]; Total QDx3d QW, N = 14) | Aspartate aminotransferase increased, Grade 3 or greater TEAE ([2]; Total QDx3d QW, N = 14) | Catheter related infection, Grade 3 or greater TEAE ([2]; Total QDx3d QW, N = 14) | Cellulitis, Grade 3 or greater TEAE ([2]; Total QDx3d QW, N = 14) | Enterocutaneous fistula, Grade 3 or greater TEAE ([2]; Total QDx3d QW, N = 14) | Hypokalaemia, grade 3 or greater TEAE ([2]; Total QDx3d QW, N = 14) | Hyponatraemia, grade 3 or greater TEAE ([2]; Total QDx3d QW, N = 14) | Pancreatitis acute, Grade 3 or greater TEAE ([2]; Total QDx3d QW, N = 14) | Pleural effusion, Grade 3 or greater TEAE ([2]; Total QDx3d QW, N = 14) | Pruritus, grade 3 or greater TEAE ([2]; Total QDx3d QW, N = 14) | Rash, grade 3 or greater TEAE ([2]; Total QDx3d QW, N = 14) | Somnolence, Grade 3 or greater TEAE ([2]; Total QDx3d QW, N = 14) | Thrombocytopenia, grade 3 or greater TEAE ([2]; Total QDx3d QW, N = 14) | Abdominal pain upper, Grade 3 or greater TEAE ([2]; Total QDx5d QW, N = 6) | Anaemia, grade 3 or greater TEAE ([2]; Total QDx5d QW, N = 6) | Aspartate aminotransferase increased, Grade 3 or greater TEAE ([2]; Total QDx5d QW, N = 6) | Asthenia, grade 3 or greater TEAE ([2]; Total QDx5d QW, N = 6) | Catheter related infection, Grade 3 or greater TEAE ([2]; Total QDx5d QW, N = 6) | Cellulitis, Grade 3 or greater TEAE ([2]; Total QDx5d QW, N = 6) | Diarrhoea, grade 3 or greater TEAE ([2]; Total QDx5d QW, N = 6) | Disease progression, grade 3 or greater TEAE ([2]; Total QDx5d QW, N = 6) | Enterocutaneous fistula, Grade 3 or greater TEAE ([2]; Total QDx5d QW, N = 6) | Gamma-glutamyltransferase increased, Grade 3 or greater TEAE ([2]; Total QDx5d QW, N = 6) | Gastroenteritis, Grade 3 or greater TEAE ([2]; Total QDx5d QW, N = 6) | Hyperglycaemia, grade 3 or greater TEAE ([2]; Total QDx5d QW, N = 6) | Hypokalaemia, grade 3 or greater TEAE ([2]; Total QDx5d QW, N = 6) | Hyponatraemia, grade 3 or greater TEAE ([2]; Total QDx5d QW, N = 6) | Lymphopenia, grade 3 or greater TEAE ([2]; Total QDx5d QW, N = 6) | Pancreatitis acute, Grade 3 or greater TEAE ([2]; Total QDx5d QW, N = 6) | Patients Reporting at Least One Grade 3 or Greater TEAE ([2]; Total QDx5d QW, N = 6) | Pleural effusion, Grade 3 or greater TEAE ([2]; Total QDx5d QW, N = 6) | Pruritus, grade 3 or greater TEAE ([2]; Total QDx5d QW, N = 6) | Rash macular, Grade 3 or greater TEAE ([2]; Total QDx5d QW, N = 6) | Rash, grade 3 or greater TEAE ([2]; Total QDx5d QW, N = 6) | Somnolence, Grade 3 or greater TEAE ([2]; Total QDx5d QW, N = 6) | Thrombocytopenia, grade 3 or greater TEAE ([2]; Total QDx5d QW, N = 6) | Urinary tract infection, Grade 3 or greater TEAE ([2]; Total QDx5d QW, N = 6) | Abdominal pain upper, Grade 3 or greater TEAE ([2]; Total QW Dosing, N = 15) | Anaemia, grade 3 or greater TEAE ([2]; Total QW Dosing, N = 15) | Asthenia, grade 3 or greater TEAE ([2]; Total QW Dosing, N = 15) | Catheter related infection, Grade 3 or greater TEAE ([2]; Total QW Dosing, N = 15) | Cellulitis, Grade 3 or greater TEAE ([2]; Total QW Dosing, N = 15) | Disease progression, grade 3 or greater TEAE ([2]; Total QW Dosing, N = 15) | Enterocutaneous fistula, Grade 3 or greater TEAE ([2]; Total QW Dosing, N = 15) | Gastroenteritis, Grade 3 or greater TEAE ([2]; Total QW Dosing, N = 15) | Hyperglycaemia, grade 3 or greater TEAE ([2]; Total QW Dosing, N = 15) | Hypokalaemia, grade 3 or greater TEAE ([2]; Total QW Dosing, N = 15) | Hyponatraemia, grade 3 or greater TEAE ([2]; Total QW Dosing, N = 15) | Pancreatitis acute, Grade 3 or greater TEAE ([2]; Total QW Dosing, N = 15) | Pleural effusion, Grade 3 or greater TEAE ([2]; Total QW Dosing, N = 15) | Pruritus, grade 3 or greater TEAE ([2]; Total QW Dosing, N = 15) | Rash macular, Grade 3 or greater TEAE ([2]; Total QW Dosing, N = 15) | Rash, grade 3 or greater TEAE ([2]; Total QW Dosing, N = 15) | Somnolence, Grade 3 or greater TEAE ([2]; Total QW Dosing, N = 15) | Thrombocytopenia, grade 3 or greater TEAE ([2]; Total QW Dosing, N = 15) | Urinary tract infection, Grade 3 or greater TEAE ([2]; Total QW Dosing, N = 15)
dose-linear plasma PK: Plasma exposures (Cmax and AUC0-24) versus dose ([1]; oral doses)
600 nM: Cmax ([1]; human, plasma, 30 mg QW)
4 (7%): Lymphopenia, grade 3 or greater TEAE ([2]; Total, N = 60)
150 nM: Cmax ([1]; human, plasma, 6 mg QD)
4 (16%): Hyperglycaemia, grade 3 or greater TEAE ([2]; Total QD Dosing, N = 25)
3 (20%): Patients Reporting at Least One Grade 3 or Greater TEAE ([2]; Total QW Dosing, N = 15)
300 nM: Cmax ([1]; human, plasma, 13 mg Q5D)
2 (3%): Gamma-glutamyltransferase increased, Grade 3 or greater TEAE ([2]; Total, N = 60) | Hypokalaemia, grade 3 or greater TEAE ([2]; Total, N = 60) | Hyponatraemia, grade 3 or greater TEAE ([2]; Total, N = 60) | Pruritus, grade 3 or greater TEAE ([2]; Total, N = 60) | Thrombocytopenia, grade 3 or greater TEAE ([2]; Total, N = 60)
7 (12%): Rash, grade 3 or greater TEAE ([2]; Total, N = 60)
0.5 to 4 h: Tmax ([1]; human, plasma, oral doses, patients)
3 (5%): Diarrhoea, grade 3 or greater TEAE ([2]; Total, N = 60)
7 (28%): Rash, grade 3 or greater TEAE ([2]; Total QD Dosing, N = 25)
5 µM·h: AUC ([1]; human, plasma, 30 mg QW)
7 (50%): Patients Reporting at Least One Grade 3 or Greater TEAE ([2]; Total QDx3d QW, N = 14)
1 (2%): Abdominal pain upper, Grade 3 or greater TEAE ([2]; Total, N = 60) | Anaemia, grade 3 or greater TEAE ([2]; Total, N = 60) | Aspartate aminotransferase increased, Grade 3 or greater TEAE ([2]; Total, N = 60) | Asthenia, grade 3 or greater TEAE ([2]; Total, N = 60) | Catheter related infection, Grade 3 or greater TEAE ([2]; Total, N = 60) | Cellulitis, Grade 3 or greater TEAE ([2]; Total, N = 60) | Disease progression, grade 3 or greater TEAE ([2]; Total, N = 60) | Enterocutaneous fistula, Grade 3 or greater TEAE ([2]; Total, N = 60) | Gastroenteritis, Grade 3 or greater TEAE ([2]; Total, N = 60) | Pancreatitis acute, Grade 3 or greater TEAE ([2]; Total, N = 60) | Pleural effusion, Grade 3 or greater TEAE ([2]; Total, N = 60) | Rash macular, Grade 3 or greater TEAE ([2]; Total, N = 60) | Somnolence, Grade 3 or greater TEAE ([2]; Total, N = 60) | Urinary tract infection, Grade 3 or greater TEAE ([2]; Total, N = 60)
350 nM: Cmax ([1]; human, plasma, 16 mg Q3D)
10 µM·h: AUC ([1]; human, plasma, 10 mg Q5D) | AUC ([1]; human, plasma, 20 mg Q3D)
5 (8%): Hyperglycaemia, grade 3 or greater TEAE ([2]; Total, N = 60)

From patent US20130209543A1, “ENHANCED TREATMENT REGIMENS USING MTOR INHIBITORS” (Intellikine LLC, priority 2011, published 2013)
